Tested on: AhR
Assay: Receptor capture assay, end-point PCR with anti-DIG time-resolved fluorescence detection, Hepa 1c1c7 cell extract
Type: biochemical, murine
Method: End-point PCR may also be utilized for dioxins. Calibrators containing 10, 100, 1000 fmol of 2,3,7,8-tetrachlorodibenzo-p-dioxin (TCDD) were prepared and 1 μl of each calibrator was dispensed into a glass test tube.
An extract from Hepa 1c1c7 cells was prepared as described by Example 1 to provide AhR for the assays. 100 μl NEAT to 0.5 μl of Hepa 1c1c7 cell extract diluted in Assay Buffer was added to each tube, thoroughly mixed, and the tubes were capped, or covered with Parafilm™. The samples were then incubated at room temperature to 37° C. for 30 min to 2 hr. Salt and salmon sperm DNA was then added to the AhR reaction medium in concentrations of 50 mM to 200 mM and 5 to 100 μg/ml, respectively. The samples were then incubated for a period ranging from 0-20 minutes at room temperature. Nucleic acid-tracer (1 nM) was added and mixed gently to allow complex formation between activated AhR and nucleic acid-tracer, where TCCD was present. The reaction tubes were incubated for a time ranging from 10 min to 1 hour, at room temperature.
Capture Strips coated with anti-ARNT antibody were prepared as described in Example 1. An aliquot of AhR reaction medium (25 to 100 μl) from each glass tube was then transferred to a corresponding well of the Capture Strip. The Capture Strips were incubated for an additional 30 min to 1 hour at room temperature, with shaking. Unbound nucleic acid-tracer was rigorously removed by washing wells five times with Wash Buffer B, optionally soaking wells for 30 sec-5 min with wash buffer during each cycle. The strips may be shaken during the soak step if desired. The strips were washed twice with water, with all liquids aspirated at the finish.
The nucleic acid-tracer remaining in the Capture Strip was PCR amplified by the following method: A PCR Master Mix was assembled with the following final concentrations: 1×PCR buffer with 1.5 mM MgCl2, 0.2 mM dATP, dCTP, dGTP, 0.15 mM dTTP, 0.05 mM DIG-dUTP (Roche, Indianapolis, Ind.), 0.5 μM each primer (PRI 1A and PRI 1B), […] Taq polymerase. The Master Mix was aliquoted 30-50 μl per well, then tape applied to seal the wells. The thermocycler profile was: 94° C., 20 sec, 15 cycles of [94° C., 30 sec, 52° C., 30 sec, 72° C. 30 sec], then 72° C., 30 sec and chilled to 4° C.
Ten μl of PCR sample was assayed by ELISA-PCR with anti-DIG detection as follows.
The PCR sample was diluted to 30 μl with water in 0.2 ml tube. The sample was heated 95° C. for 3-5 min. The immobilization (capture) probe was:
The probe was diluted to 10 nM in Hybridization Buffer (0.5× Assay Buffer, 0.5 M NaCl). The probe (100 μl=1 pmol) was then added to the hot samples, mixed, and incubated at 37° C. for 45 min.
The sample was transferred to a pre-washed streptavidin-coated microtiter wells in the form of strips or plates obtained from DELFIA catalog number 4009-0010 (Wallac, Finland) and shaken for 45 min. at room temperature. Strips or plates were washed three times with Wallac Wash Buffer (DELFIA wash concentrate, catalog number 13800865, Wallac, Finland). The Wallac Wash Buffer (1×) for the automated plate washer was made from 25× Wash Concentrate (Wallac), which contains Tris, NaCl, and TWEEN-20.
Anti-DIG antibody (Sigma Chemical Co, St. Louis, Mo.) was diluted 1/1000 in Assay Buffer and 100 μl added to each well, and strips were shaken for 30 min. […] Samples were counted on a Victor 2 multilabel counter/plate reader (catalog number 1420-012, Wallac, Finland) using time-resolved fluorescence. […]

Structure (SMILES)	DNA signal over DMSO control (BNF in DMSO added to Hepa 1c1c7 cell extract)	Counts (time-resolved fluorescence) (TCDD 1 fmol)	Counts (time-resolved fluorescence) (TCDD 10 fmol)	Counts (time-resolved fluorescence) (TCDD 100 fmol)	Counts (time-resolved fluorescence) (TCDD 1000 fmol)
O=c1cc(-c2ccccc2)oc2ccc3ccccc3c12 [BNF, beta-naphthoflavone]	significantly and reproducibly increased the DNA signal	–	–	–	–
Clc1cc2c(cc1Cl)Oc1cc(Cl)c(Cl)cc1O2 [TCDD, 2,3,7,8-tetrachlorodibenzo-p-dioxin]	–	5770	17287	100645	504879
